Experiment: RP, Waters ACQUITY UPLC BEH C18, 50 × 2.1 mm, 1.7 µm, 35 °C, 0.25 mL/min, estimated dead time 0.44 min; A: water + 0.1% acetic acid, pH 3; B: acetonitrile; gradient (min/%B) 0/5 1.12/5 6.41/99.5 10.01/99.5
Details: stereoisomer not certain

Row | Structure (SMILES) | LC retention time [min]
1 | CCCCCCCCCCCCCCCCCC(=O)OCC(O)COP(=O)([O-])OCC[N+](C)(C)C (stereo not given) [lysoPC(18:0/0:0)] | 11.5
2 | NC(Cc1ccccc1)C(=O)NC(Cc1ccccc1)C(=O)O (stereo not given) [Phe-phe] | 4
3 | NC(Cc1c[nH]c2ccccc12)C(=O)O (stereo not given) [tryptophan] | 1
4 | NC(=O)CCC(NC(=O)Cc1ccccc1)C(=O)O (stereo not given) [phenylacetylglutamine] | 2
5 | O=S(=O)([O-])Oc1c[nH]c2ccccc12.[K+] [indoxyl sulfuric acid] | 2
6 | COCC(NC(C)=O)C(=O)NCc1ccccc1 (stereo not given) [lacosamide] | 4

Next, values leading:

Row | LC retention time [min] | Structure (SMILES)
7 | 15 | CCCCCCCCCCCCCCCCC(=O)O [heptadecanoic acid]
8 | 9.37 | O=C(O)CCCCCCCCCCCCCCC(=O)O [hexadecanedioic acid]
9 | 5 | O=C(O)CCCCCCCC(=O)O [nonanedioic acid]
10 | 10 | CCCCCCCCCC(=O)O [decanoic acid]

— the RepoRT retention time repository
